Target: T1, Anthranilate phosphoribosyltransferase (Mycobacterium tuberculosis (strain CDC 1551 / Oshkosh), UniProt P9WFX4)
T1 sequence (P9WFX4 whole entry): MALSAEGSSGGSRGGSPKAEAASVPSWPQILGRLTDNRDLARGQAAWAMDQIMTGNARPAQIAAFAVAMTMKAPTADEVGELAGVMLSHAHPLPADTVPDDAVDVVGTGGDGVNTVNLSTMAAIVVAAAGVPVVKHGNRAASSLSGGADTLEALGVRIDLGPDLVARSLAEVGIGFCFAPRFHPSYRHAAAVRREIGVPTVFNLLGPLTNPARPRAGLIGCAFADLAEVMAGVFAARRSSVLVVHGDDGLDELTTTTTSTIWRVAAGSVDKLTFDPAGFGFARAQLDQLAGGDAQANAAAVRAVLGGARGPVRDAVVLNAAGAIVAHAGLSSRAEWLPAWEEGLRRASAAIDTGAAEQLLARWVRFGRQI
Test: Fluoresence-based Assay
From the text: An enzyme-coupled absorbance-based assay developed in house was used to determine the inhibitor-enzyme kinetic parameters of Mtb-AnPRT, including ki values for the inhibitors.

Row | SMILES | Ki [µM]
1 | COc1ccc(C(=O)O)cc1N [ACS No 126] | 60
2 | NC(CCCNc1ccc([N+](=O)[O-])cc1[N+](=O)[O-])CC(=O)O (configuration not stated) [ACS No 165] | 79

Reference: BindingDB's records for doi:10.1021/bi301387m (University of Auckland, 2013)
